For one experiment, the target named is dephosphorylated FGFR2 (Homo sapiens (Human), UniProt P21802). Briefly: FGFR enzyme binding assay (HTRF tracer displacement), FGFR2. The note with it: 5 nM dephosphorylated FGFR2, average of multiple determinations if made. The method in brief: (§1)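 Kinase and tracer were incubated with compound for 60 minutes at 22° C. Tracer displacement was then measured by HTRF, and results were expressed as POC with 1 μM control inhibitor defining full displacement.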
In general terms: Time-resolved FRET reads energy transfer from a long-lived donor to a nearby acceptor.

Experiment [1] concerns the target phosphorylated FGFR3 (SEQ ID NO: 5, amino acids 449 to 759) (Homo sapiens (Human), UniProt P22607). In words: FGFR enzyme binding assay (HTRF tracer displacement), FGFR3. The settings on record: 5 nM phosphorylated FGFR3, average of multiple determinations if made. The method in brief: as §1
Experiment [2] has as its target FGFR3 (SEQ ID NO: 5, amino acids 449-759) (Homo sapiens (Human), UniProt P22607). In words: LC/MS FGFR3 kobs assay (covalent protein modification). The note with it: 500 nM FGFR3, 3 μM compound. The class given is binding. The method in brief:
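Quench: 0.4% formic acid at each time point. Readout: intact-protein LC/MS (Q-TOF), deconvoluted masses. Analysis: % unmodified, normalized to DMSO controls, fit to exponential decay → kobs; mean of replicates where repeated.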

Experiment [3] addresses HEK-293 cells transfected with dox-inducible human wild type FGFR1 (Homo sapiens (Human), UniProt P11362). In words: FGFR1 pERK cell assay. The class given is cell-based. The note with it: HEK-293 dox-inducible FGFR1, 1 hour compound, 100 ng/ml FGF-acidic; maximum concentration 5 μM. The method in brief:
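In HEK-293 cells with dox-induced human wild-type FGFR1, compounds (1:3 dilutions, top 5 μM final) were applied 1 h at 37°C before 5 min stimulation with 100 ng/ml FGF-acidic. Phospho-ERK1/2 measured by MSD sandwich immunoassay; IC50 from 4-parameter fit of POC versus vehicle and control compound.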

The target of experiment [4] is T1, HEK-293 cells transfected with dox-inducible human wild type FGFR3 (Homo sapiens (Human), UniProt P22607). Briefly: FGFR3 pERK cell assay. The class given is cell-based. The note with it: HEK-293 dox-inducible FGFR3, 1 hour compound, 100 ng/ml FGF-acidic; maximum concentration 5 μM. The method in brief:
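Doxycycline-induced cells preincubated 1 h at 37 °C with compound (1:3 dilutions, top 5 μM final), then stimulated 5 min with 100 ng/ml FGF-acidic. Lysate phospho-ERK1/2 measured by MSD sandwich assay; IC50 at 50 POC from 4-parameter fit, normalised to no-compound and control-compound wells.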

In experiment [5] the target is T1, HEK-293 cells transfected with dox-inducible human wild type FGFR3. In words: FGFR3 pFGFR cell assay (ELISA). The class given is cell-based. The note with it: HEK-293 dox-inducible FGFR3, 1 hour compound, 100 ng/ml FGF-acidic. The method in brief: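 Doxycycline-induced (1 μg/ml) HEK-293 cells expressing wild-type human FGFR3, treated 1 h with compound (1:3 series, top final 5 μM), then stimulated 5 min with 100 ng/ml FGF-acidic. Phospho-FGFR3 measured by ELISA (total FGFR3 capture, phosphotyrosine detection, OD 450 nm); IC50 from 4-parameter fit of POC values.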
A general note: In an ELISA, binding on a coated surface is turned into a signal by an enzyme label.

The values below come from US12180207B2 (ARRAY BIOPHARMA INC., priority 2018, dated 2024).

Chain of dephosphorylated FGFR2 (P21802 22-821): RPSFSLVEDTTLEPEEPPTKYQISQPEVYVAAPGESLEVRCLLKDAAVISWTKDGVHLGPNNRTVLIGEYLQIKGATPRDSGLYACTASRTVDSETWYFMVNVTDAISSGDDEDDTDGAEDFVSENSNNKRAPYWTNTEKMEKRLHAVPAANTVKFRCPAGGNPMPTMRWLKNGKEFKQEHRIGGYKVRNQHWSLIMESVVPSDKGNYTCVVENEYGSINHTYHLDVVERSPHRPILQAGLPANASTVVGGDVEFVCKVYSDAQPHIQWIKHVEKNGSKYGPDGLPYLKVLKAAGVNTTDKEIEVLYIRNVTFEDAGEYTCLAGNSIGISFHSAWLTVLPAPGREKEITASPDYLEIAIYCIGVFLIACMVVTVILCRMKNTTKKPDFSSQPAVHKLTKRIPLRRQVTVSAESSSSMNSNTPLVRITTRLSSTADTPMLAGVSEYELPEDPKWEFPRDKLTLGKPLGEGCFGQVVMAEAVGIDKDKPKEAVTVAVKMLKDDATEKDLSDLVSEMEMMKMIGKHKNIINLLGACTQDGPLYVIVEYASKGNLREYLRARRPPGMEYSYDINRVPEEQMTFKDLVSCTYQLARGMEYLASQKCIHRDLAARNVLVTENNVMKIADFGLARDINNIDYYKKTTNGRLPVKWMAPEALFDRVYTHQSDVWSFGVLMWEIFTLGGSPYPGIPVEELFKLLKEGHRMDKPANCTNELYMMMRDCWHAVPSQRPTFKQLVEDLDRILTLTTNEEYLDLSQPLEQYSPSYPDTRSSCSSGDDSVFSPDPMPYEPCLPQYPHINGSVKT
T1 sequence (P22607 23-806): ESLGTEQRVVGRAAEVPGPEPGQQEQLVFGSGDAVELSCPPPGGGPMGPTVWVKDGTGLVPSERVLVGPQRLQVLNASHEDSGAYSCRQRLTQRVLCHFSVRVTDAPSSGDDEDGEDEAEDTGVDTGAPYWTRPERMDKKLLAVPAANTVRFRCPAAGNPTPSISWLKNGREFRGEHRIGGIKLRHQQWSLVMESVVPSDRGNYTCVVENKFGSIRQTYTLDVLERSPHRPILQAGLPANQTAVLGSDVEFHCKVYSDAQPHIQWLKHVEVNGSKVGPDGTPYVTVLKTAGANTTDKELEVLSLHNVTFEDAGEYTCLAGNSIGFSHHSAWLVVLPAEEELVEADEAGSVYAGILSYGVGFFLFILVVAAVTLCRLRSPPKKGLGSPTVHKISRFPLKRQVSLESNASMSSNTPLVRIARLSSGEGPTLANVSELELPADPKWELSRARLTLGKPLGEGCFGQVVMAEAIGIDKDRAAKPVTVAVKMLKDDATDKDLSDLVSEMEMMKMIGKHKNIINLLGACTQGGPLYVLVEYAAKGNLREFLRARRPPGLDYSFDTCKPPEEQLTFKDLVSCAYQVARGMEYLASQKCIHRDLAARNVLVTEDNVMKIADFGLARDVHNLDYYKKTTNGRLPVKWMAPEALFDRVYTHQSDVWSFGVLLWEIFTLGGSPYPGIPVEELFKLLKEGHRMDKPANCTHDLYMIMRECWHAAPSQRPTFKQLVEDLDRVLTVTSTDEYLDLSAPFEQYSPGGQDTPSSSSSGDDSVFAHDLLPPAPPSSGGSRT
Chain of HEK-293 cells transfected with dox-inducible human wild type FGFR1 (P11362 22-822): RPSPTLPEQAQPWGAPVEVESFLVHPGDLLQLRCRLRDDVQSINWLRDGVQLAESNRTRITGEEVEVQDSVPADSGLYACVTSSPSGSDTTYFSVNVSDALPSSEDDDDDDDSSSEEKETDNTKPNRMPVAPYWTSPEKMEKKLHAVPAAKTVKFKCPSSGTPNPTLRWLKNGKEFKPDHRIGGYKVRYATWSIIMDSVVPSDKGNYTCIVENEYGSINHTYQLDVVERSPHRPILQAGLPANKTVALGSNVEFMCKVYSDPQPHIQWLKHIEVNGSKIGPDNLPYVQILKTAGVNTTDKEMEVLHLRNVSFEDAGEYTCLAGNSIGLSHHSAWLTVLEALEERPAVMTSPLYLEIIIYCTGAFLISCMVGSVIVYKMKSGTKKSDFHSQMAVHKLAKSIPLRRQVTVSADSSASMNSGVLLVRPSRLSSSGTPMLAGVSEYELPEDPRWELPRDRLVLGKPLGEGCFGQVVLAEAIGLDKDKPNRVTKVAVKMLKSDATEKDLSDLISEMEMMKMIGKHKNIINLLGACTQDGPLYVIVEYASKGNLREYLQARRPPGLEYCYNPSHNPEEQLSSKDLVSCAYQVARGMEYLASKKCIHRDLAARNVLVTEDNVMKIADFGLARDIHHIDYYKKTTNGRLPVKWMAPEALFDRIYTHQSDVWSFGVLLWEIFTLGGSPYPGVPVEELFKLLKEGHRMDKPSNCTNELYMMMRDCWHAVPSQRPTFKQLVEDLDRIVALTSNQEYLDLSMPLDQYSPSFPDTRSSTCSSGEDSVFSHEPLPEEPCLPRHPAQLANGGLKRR
Chain of phosphorylated FGFR3 (SEQ ID NO: 5, amino acids 449 to 759) (P22607 449-759): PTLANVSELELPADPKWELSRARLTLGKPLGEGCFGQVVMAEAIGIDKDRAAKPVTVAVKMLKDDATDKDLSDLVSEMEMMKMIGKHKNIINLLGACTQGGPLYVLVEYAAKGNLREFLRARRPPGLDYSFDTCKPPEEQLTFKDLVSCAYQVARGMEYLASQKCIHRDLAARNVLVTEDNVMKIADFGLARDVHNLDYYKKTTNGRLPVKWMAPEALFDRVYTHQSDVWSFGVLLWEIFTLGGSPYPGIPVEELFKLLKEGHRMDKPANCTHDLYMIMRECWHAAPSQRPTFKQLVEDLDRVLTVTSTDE
Chain of FGFR3 (SEQ ID NO: 5, amino acids 449-759) (P22607 449-759): as above

With `C=CC(=O)N1CC(F)(C(=O)N2CCC(n3cc(-c4cc(OC)c5c(C#N)cnn5c4)cn3)CC2)C1` [Example 37, 6-(1-(1-(1-acryloyl-3-fluoroazetidine-3-carbonyl)piperidin-4-yl)-1H-pyrazol-4-yl)-4-methoxypyrazolo[1,5-a]pyridine-3-carbonitrile], the IC50 (usually the concentration that inhibits the measured activity by half) is 0.044 µM on dephosphorylated FGFR2; 0.003 µM in experiment [1]; 0.059 µM in experiment [3]; 0.008 µM in experiment [4]; 0.012 µM in experiment [5]. For the same compound, in experiment [2], the “FGFR3 Enz kobs” value worked out at 0.07092 min⁻¹.
Take `C=CC(=O)N1CC(C(=O)N2C3CCC2CN(c2ccc(-c4cc(OC)c5c(C#N)cnn5c4)cn2)C3)C1` [Example 50, 6-(6-(8-(1-acryloylazetidine-3-carbonyl)-3,8-diazabicyclo[3.2.1]octan-3-yl)pyridin-3-yl)-4-methoxypyrazolo[1,5-a]pyridine-3-carbonitrile]: the concentration for half-maximal inhibition (IC50) came out at 0.014 µM at dephosphorylated FGFR2, 0.003 µM in experiment [1], 0.103 µM in experiment [3] and 0.025 µM in experiment [4]. Further, the “FGFR3 Enz kobs” value in experiment [2] turned out to be 0.04375 min⁻¹.
As for `C=CC(=O)N1CC(C(=O)N2CC3CCC(C2)N3c2ccc(-c3cc(OC)c4c(C#N)cnn4c3)cn2)C1` [Example 51, 6-(6-(3-(1-acryloylazetidine-3-carbonyl)-3,8-diazabicyclo[3.2.1]octan-8-yl)pyridin-3-yl)-4-methoxypyrazolo[1,5-a]pyridine-3-carbonitrile], the concentration for half-maximal inhibition (IC50) at dephosphorylated FGFR2 turned out to be 0.038 µM; in experiment [1] it was 0.009 µM; in experiment [3], 0.198 µM; in experiment [4], 0.061 µM. Besides, the “FGFR3 Enz kobs” value in experiment [2] was found to be 0.01769 min⁻¹.
On to `C=CC(=O)N1CC(C(=O)N2C3CC2CN(c2ccc(-c4cc(OC)c5c(C#N)cnn5c4)cn2)C3)C1` [Example 52, 6-(6-(6-(1-acryloylazetidine-3-carbonyl)-3,6-diazabicyclo[3.1.1]heptan-3-yl)pyridin-3-yl)-4-methoxypyrazolo[1,5-a]pyridine-3-carbonitrile], for which the IC50 at dephosphorylated FGFR2 worked out at 0.032 µM; in experiment [1], 0.014 µM; in experiment [3] it was 0.759 µM; in experiment [4], 0.262 µM. In experiment [2], the “FGFR3 Enz kobs” value came out at 0.00929 min⁻¹.
Consider `C=CC(=O)Nc1ccc(C(=O)N2CC[C@@H](n3cc(-c4cc(OC)c5c(C#N)cnn5c4)cn3)C2)cc1` [Example 55, (R)-N-(4-(3-(4-(3-cyano-4-methoxypyrazolo[1,5-a]pyridin-6-yl)-1H-pyrazol-1-yl)pyrrolidine-1-carbonyl)phenyl)acrylamide], for which the IC50 in experiment [1] amounted to 0.007 µM; in experiment [3], 0.381 µM; in experiment [4], 0.071 µM; in experiment [5] it was 0.064 µM. Besides, the “FGFR3 Enz kobs” value in experiment [2] worked out at 0.0205 min⁻¹.
Taken in the same sequence, the figures for `C=CC(=O)N1CCC(C(=O)N2CCC(n3ncc(-c4cc(OC)c5c(C#N)cnn5c4)c3C)CC2)CC1` [Example 82, 6-(1-(1-(1-acryloylpiperidine-4-carbonyl)piperidin-4-yl)-5-methyl-1H-pyrazol-4-yl)-4-methoxypyrazolo[1,5-a]pyridine-3-carbonitrile] were 0.023 µM, 3.36 µM, 0.853 µM, 0.814 µM and 0.00319 min⁻¹.
On to `C=CC(=O)N1CC(C)(C(=O)N2CCC(n3ncc(-c4cc(OC)c5c(C#N)cnn5c4)c3C)CC2)C1` [Example 86, 6-(1-(1-(1-acryloyl-3-methylazetidine-3-carbonyl)piperidin-4-yl)-5-methyl-1H-pyrazol-4-yl)-4-methoxypyrazolo[1,5-a]pyridine-3-carbonitrile], for which the 50% inhibitory concentration (IC50) on dephosphorylated FGFR2 was 0.012 µM; in experiment [1] it was 0.009 µM; in experiment [3], 2.37 µM; in experiment [4], 0.159 µM. Also, the “FGFR3 Enz kobs” value in experiment [2] came to 0.02116 min⁻¹.
The corresponding values for `C=CC(=O)N1CC(C(=O)N2CCC(n3ncc(-c4cc(OC)c5c(C#N)cnn5c4)c3C)CC2)C1(C)C` (centres unmarked) [Example 87, 6-(1-(1-(1-acryloyl-2,2-dimethylazetidine-3-carbonyl)piperidin-4-yl)-5-methyl-1H-pyrazol-4-yl)-4-methoxypyrazolo[1,5-a]pyridine-3-carbonitrile] are 0.051 µM, 0.016 µM, 2.35 µM, 0.52 µM and 0.00502 min⁻¹.
In the case of `C=CC(=O)N1CC(OC)(C(=O)N2CCC(n3ncc(-c4cc(OC)c5c(C#N)cnn5c4)c3C)CC2)C1` [Example 88, 6-(1-(1-(1-acryloyl-3-methoxyazetidine-3-carbonyl)piperidin-4-yl)-5-methyl-1H-pyrazol-4-yl)-4-methoxypyrazolo[1,5-a]pyridine-3-carbonitrile], the 50% inhibitory concentration (IC50) on dephosphorylated FGFR2 amounted to 0.012 µM; in experiment [1], 0.003 µM; in experiment [3], 0.605 µM; in experiment [4] it was 0.034 µM. For the same compound, the “FGFR3 Enz kobs” value in experiment [2] is 0.05581 min⁻¹.
In the case of `C=CC(=O)N1CC(CN2CCC(n3ncc(-c4cc(OC)c5c(C#N)cnn5c4)c3C)CC2)C1` [Example 89, 6-(1-(1-((1-acryloylazetidin-3-yl)methyl)piperidin-4-yl)-5-methyl-1H-pyrazol-4-yl)-4-methoxypyrazolo[1,5-a]pyridine-3-carbonitrile], the concentration for half-maximal inhibition (IC50) on dephosphorylated FGFR2 was determined as 0.053 µM; in experiment [1] it was 0.008 µM; in experiment [3], 0.541 µM; in experiment [4] it was 0.022 µM. The “FGFR3 Enz kobs” value in experiment [2] was 0.02499 min⁻¹.
For the compound `C=CC(=O)N1CC(C)(CN2CCC(n3ncc(-c4cc(OC)c5c(C#N)cnn5c4)c3C)CC2)C1` [Example 90, 6-(1-(1-((1-acryloyl-3-methylazetidin-3-yl)methyl)piperidin-4-yl)-5-methyl-1H-pyrazol-4-yl)-4-methoxypyrazolo[1,5-a]pyridine-3-carbonitrile], the IC50 came out at 0.054 µM on dephosphorylated FGFR2, 0.014 µM in experiment [1], 2.24 µM in experiment [3] and 0.043 µM in experiment [4]. Besides, the “FGFR3 Enz kobs” value in experiment [2] came out at 0.01468 min⁻¹.
With `C=CC(=O)N1CC(CN2CCC(n3ncc(-c4cc(OC)c5c(C#N)cnn5c4)c3C)CC2)(OC)C1` [Example 91, 6-(1-(1-((1-acryloyl-3-methoxyazetidin-3-yl)methyl)piperidin-4-yl)-5-methyl-1H-pyrazol-4-yl)-4-methoxypyrazolo[1,5-a]pyridine-3-carbonitrile], the half-maximal inhibitory concentration (IC50) stood at 0.019 µM on dephosphorylated FGFR2, 0.002 µM in experiment [1], 0.341 µM in experiment [3] and 0.015 µM in experiment [4]. For the same compound, the “FGFR3 Enz kobs” value in experiment [2] turned out to be 0.04322 min⁻¹.
As to `C=CC(=O)N1CC(C(=O)N2CCC(n3cc(-c4cc(OC)c5c(C#N)cnn5c4)c(C)n3)CC2)C1` [Example 94, 6-(1-(1-(1-acryloylazetidine-3-carbonyl)piperidin-4-yl)-3-methyl-1H-pyrazol-4-yl)-4-methoxypyrazolo[1,5-a]pyridine-3-carbonitrile], the IC50 in experiment [1] worked out at 0.018 µM; in experiment [3], 4.5 µM; in experiment [4], 0.45 µM; in experiment [5], 0.336 µM. Further, in experiment [2], the “FGFR3 Enz kobs” value amounted to 0.01518 min⁻¹.
As for `C=CS(=O)(=O)Nc1cccc(C(=O)N2CCC(n3cc(-c4cc(OC)c5c(C#N)cnn5c4)cn3)CC2)c1` [Example 188, N-(3-(4-(4-(3-cyano-4-methoxypyrazolo[1,5-a]pyridin-6-yl)-1H-pyrazol-1-yl)piperidine-1-carbonyl)phenyl)eth-enesulfonamide], the 50% inhibitory concentration (IC50) in experiment [1] stood at 0.001 µM; in experiment [3], 0.134 µM; in experiment [4], 0.019 µM; in experiment [5], 0.024 µM. Further, the “FGFR3 Enz kobs” value in experiment [2] turned out to be 0.08524 min⁻¹.
